According to patent US10716783B2, “Prolylhydroxylase/ATF4 inhibitors and methods of use for treating neural cell injury or death and conditions resulting therefrom” (CORNELL UNIVERSITY, priority 2013, dated 2020):
Like-named read-outs stand apart in the source and are kept apart here.

What was measured:
[1] = tested on: primary cortical neurons; experiment: Hemin-induced toxicity in primary cortical neurons (MTT, LIVE/DEAD); type: cell-based; details: for EC50: primary cortical neurons, MTT assay, read-out: EC50 for abrogating hemin toxicity
Excerpt: (§1) FIGS. 1A-1L: Structurally diverse HIF PHD inhibitors stabilize HIF-1 and abrogate toxicity induced by hemin, a byproduct of blood breakdown, in cortical neurons hippocampal neuroblasts and striatal neuroblasts (not shown).
(§2) Secondary injury from ICH has been attributed to hemin, a breakdown product of hemoglobin (from lysed red blood cells). To investigate the mechanisms of hemin toxicity to neurons in vitro, this experiment exposed primary cortical neurons, immortalized hippocampal neuroblasts (HT22 cells), and immortalized striatal neuroblasts (Q7 cells) to hemin for 24 hours. As expected, a dose dependent loss in viability as measured by MTT reduction or LIVE/DEAD assay in all three cell types was observed. […] To examine whether iron-dependent HIF PHD enzymes can be modulated to protect neurons from hemin-induced toxicity, this experiment examined structurally diverse inhibitors of the HIF PHDs: desferoxamine, cyclopirox, and dihydroxybenzoic acid. […] To test this notion further using a chemical biological approach, the protective effects of cyclopirox, a HIF PHD inhibitor, and a cyclopirox analog with no PHD inhibitory activity but with similar metal binding affinity to cyclopirox were compared. As expected, only the cyclopirox analog with PHD inhibitory activity was neuroprotective.

[2] = tested on: HIF PHDs; experiment: ODD-luciferase reporter mice, in vivo bioluminescence imaging and tissue lysates; details: in vivo bioluminescence imaging; intraperitoneal; adaptoquin 30 mg/kg
Excerpt: FIGS. 3A-3G. Validation of adaptoquin as a novel HIF PHD inhibitor. […] Under steady state conditions, activity of HIF PHD2 with its co-substrate 2-oxoglutarate involves two peaks that represent non-hydroxylated and hydroxylated peptide. The hydroxylated peptide disappears in the presence of HIF PHD2 inhibition by adaptoquin. […] The reporter contains the ODD domain of HIF-1 which confers HIF PHD regulated stability on it. It is expressed in all cells of the body, but is destabilized in the absence of HIF PHD inhibition and stabilized in its presence. Quantitative measurements confirm stability of the ODD-luc in brain, kidney and liver (FIGS. 3D and 3E.).
To identify HIF PHD inhibitors suitable for testing in ICH, the experiment first sought to identify which of the known HIF PHD inhibitors could penetrate the blood brain barrier to inhibit HIF PHD activity in the CNS. To monitor HIF PHD activity dynamically, the experiment utilized mice that had previously been engineered to ubiquitously express the oxygen degradation domain (ODD) of HIF-1α fused to firefly luciferase. The ODD domain contains proline 402 and 564, which are hydroxylated by the HIF PHDs to degrade HIF-1 or the ODD-luciferase. Accordingly, these mice have been used previously to track HIF PHD activity in diverse organs in vivo using in vivo bioluminescence imaging.
To verify that the changes in light in the brain reflect parenchymal changes in ODD-luciferase levels rather than increases in changes in skin or dural ODD-luciferase, ODD-luciferase activity was measured normalized to total protein in lysates from distinct brain regions using a luminometer.

[3] = tested on: immortalized striatal neuroblasts (Q7 cells); experiment: Hemin-induced toxicity in striatal neuroblasts (MTT); type: cell-based; details: MTT assay, read-out: EC50 for abrogating hemin toxicity
Excerpt: as §1, §2

[4] = tested on: HIF PHDs; experiment: ODD-luciferase cell based assay
[5] = tested on: immortalized hippocampal neuroblasts (HT22 cells); experiment: Hemin-induced toxicity in hippocampal neuroblasts (MTT); type: cell-based; details: MTT assay, read-out: EC50 for abrogating hemin toxicity
Excerpt: as §1
as §2, with “neuroprotective. […]” for “neuroprotective.”

[6] = tested on: HIF-1 protein; experiment: HIF-1 protein stabilisation in primary neurons (Western blot); type: cell-based; details: primary neurons, Western blot
Excerpt: FIGS. 1A-1L: Structurally diverse HIF PHD inhibitors stabilize HIF-1 and abrogate toxicity induced by hemin, a byproduct of blood breakdown, in cortical neurons hippocampal neuroblasts and striatal neuroblasts (not shown). […] FIGS. 6A-6I. […] Expression of ATF4 was forced into primary neurons, which induces death of these neurons by MTT assay (FIG. 6D) or LIVE/DEAD staining, Green is live, Red is dead (FIG. 6E).

Compound: CC(=O)N(O)CCCCCNC(=O)CCC(=O)N(O)CCCCCNC(=O)CCC(=O)N(O)CCCCCN [Desferoxamine]
- EC50 [1]: 34.1 µM
- ODD-luciferase activity in brain [2]: failed to increase ODD-luciferase activity in the brain
- EC50 [3]: 26.7 µM
- ODD-luciferase activity in cell based assays [4]: induced the ODD-luciferase activity in cell based assays
- EC50 [5]: 50.8 µM
- Stabilisation of HIF-1 protein [6]: stabilize HIF-1 protein

Compound: Cc1cc(C2CCCCC2)n(O)c(=O)c1 [cyclopirox]
- EC50 ([1]; Primary cortical neuron): 1.4 µM
- Prevention of hemin-induced death ([1]; neurons, FIGS. 1M, 1O-1R): prevents hemin-induced death
- ODD-luciferase activity in brain [2]: failed to increase ODD-luciferase activity in the brain
- ODD-luciferase activity in cell based assays [4]: induced the ODD-luciferase activity in cell based assays
- Stabilisation of HIF-1 protein [6]: stabilize HIF-1 protein
